Data published in patent US20060257543A1, “Molecules comprising linked organic moieties as flavor modifiers for comestible compositions” (priority 2005, published 2006).
Read-outs that look alike come from different tables or passages of the source.

Molecular target: T1, hT1R2/hT1R3 sweet receptor expressed in an HEK293 cell line (Homo sapiens, UniProt Q7RTX0+Q8TE23)
T1 construct: expressed in transfected cells; host or cells: HEK293 derivative, clone S-9
T1 sequence (Q8TE23 20-839): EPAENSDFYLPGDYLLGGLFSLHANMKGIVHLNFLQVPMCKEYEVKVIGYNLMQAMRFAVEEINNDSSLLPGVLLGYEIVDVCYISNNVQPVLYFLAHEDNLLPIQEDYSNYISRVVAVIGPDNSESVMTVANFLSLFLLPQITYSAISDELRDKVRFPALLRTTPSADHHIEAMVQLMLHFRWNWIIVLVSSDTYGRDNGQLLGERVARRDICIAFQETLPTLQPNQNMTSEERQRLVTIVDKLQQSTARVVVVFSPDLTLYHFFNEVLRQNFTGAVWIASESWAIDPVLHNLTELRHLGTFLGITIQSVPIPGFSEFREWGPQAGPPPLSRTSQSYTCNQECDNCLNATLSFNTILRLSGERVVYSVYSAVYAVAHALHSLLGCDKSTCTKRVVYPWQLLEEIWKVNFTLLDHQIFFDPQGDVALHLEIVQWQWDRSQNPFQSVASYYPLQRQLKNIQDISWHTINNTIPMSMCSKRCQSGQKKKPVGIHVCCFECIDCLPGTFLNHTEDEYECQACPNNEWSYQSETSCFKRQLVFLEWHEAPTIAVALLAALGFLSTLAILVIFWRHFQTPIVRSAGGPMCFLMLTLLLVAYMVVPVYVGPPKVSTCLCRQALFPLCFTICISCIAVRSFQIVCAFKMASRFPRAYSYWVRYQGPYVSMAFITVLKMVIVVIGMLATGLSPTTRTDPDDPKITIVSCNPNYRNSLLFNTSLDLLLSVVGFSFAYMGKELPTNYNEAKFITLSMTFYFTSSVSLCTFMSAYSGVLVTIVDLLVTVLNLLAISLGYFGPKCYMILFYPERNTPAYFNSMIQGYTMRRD
T1 sequence (Q7RTX0 21-852): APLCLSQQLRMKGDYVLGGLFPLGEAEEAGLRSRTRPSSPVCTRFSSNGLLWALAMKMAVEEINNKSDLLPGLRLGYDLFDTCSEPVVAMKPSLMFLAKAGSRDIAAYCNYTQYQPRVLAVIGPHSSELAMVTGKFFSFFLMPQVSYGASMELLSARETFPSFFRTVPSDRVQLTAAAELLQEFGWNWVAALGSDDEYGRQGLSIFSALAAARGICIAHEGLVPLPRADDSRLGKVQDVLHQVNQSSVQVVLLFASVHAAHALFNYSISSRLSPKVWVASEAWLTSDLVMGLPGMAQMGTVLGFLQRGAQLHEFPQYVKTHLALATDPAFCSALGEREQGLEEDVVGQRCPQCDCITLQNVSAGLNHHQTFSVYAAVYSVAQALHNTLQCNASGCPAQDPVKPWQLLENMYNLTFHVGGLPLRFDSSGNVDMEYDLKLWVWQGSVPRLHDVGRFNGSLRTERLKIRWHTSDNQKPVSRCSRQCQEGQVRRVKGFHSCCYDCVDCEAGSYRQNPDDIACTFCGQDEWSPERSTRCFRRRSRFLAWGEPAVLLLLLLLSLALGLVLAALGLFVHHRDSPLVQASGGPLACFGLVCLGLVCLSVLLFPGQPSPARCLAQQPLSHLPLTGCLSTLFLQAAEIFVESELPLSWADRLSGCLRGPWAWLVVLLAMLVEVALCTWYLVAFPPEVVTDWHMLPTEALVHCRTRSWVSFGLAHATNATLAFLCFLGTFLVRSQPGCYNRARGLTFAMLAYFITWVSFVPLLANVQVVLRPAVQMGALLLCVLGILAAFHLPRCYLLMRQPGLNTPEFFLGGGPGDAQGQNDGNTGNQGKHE
Assay: In vitro hT1R2/hT1R3 sweet taste receptor activation assay (FLIPR, dose response)
Assay type: cell-based
From the text: An HEK293 cell line derivative (see Chandrashekar, J., Mueller, K. L., Hoon, M. A., Adler, E., Feng, L., Guo, W., Zuker, C. S., Ryba, N. J.,. Cel,l 2000, 100, 703-711.) that stably expresses Gα15 and hT1R2/hT1R3 (see Li, X., Staszewski, L., Xu, H., Durick, K., Zoller, M., Adler, E. Proc Natl Acad Sci USA 2002, 99, 4692-4696, and PCT Publication No. WO 03/001876) was used to identify compounds with sweet taste enhancing properties. These references are hereby incorporated herein by reference for their methods of preparing and maintaing the cell lines discussed below, and for their methods for screeing compounds that inhibit the biological receptors.
Compounds covered in this document were initially selected based on their activity on the hT1R2/hT1R3—HEK293-Gα15 cell line (Li, et al. vide supra). Activity was determined using an automated fluorometric imaging assay on a FLIPR instrument (Fluorometric Intensity Plate Reader, Molecular Devices, Sunnyvale, Calif.) (designated FLIPR assay). Cells from one clone (designated S-9 cells) were seeded into 384-well plates (at approximately 50,000 cells per well) in a medium containing DMEM Low Glucose (Invitrogen, Carlsbad, Calif.), 10% dialyzed fetal bovine serum (Invitrogen, Carlsbad, Calif.), 100 Units/ml Penicillin G, and 100 μg/ml Streptomycin (Invitrogen, Carlsbad, Calif.) (Li, et al. vide supra) see also World Patent No. WO 03/001876 A2). S-9 cells were grown for 24 hours at 37° C. S-9 cells were then loaded with the calcium dye Fluo-3AM (Molecular Probes, Eugene, Oreg.), 4 μM in a phosphate buffered saline (D-PBS) (Invitrogen, Carlsbad, Calif.), for 1 hour at room temperature. After replacement with 25 μl D-PBS, stimulation was performed in the FLIPR instrument and at room temperature by the addition of 25 μl D-PBS supplemented with different stimuli at concentrations corresponding to twice the desired final level. Receptor activity was quantified by determining the maximal fluorescence increases (using a 480 nm excitation and 535 nm emission) after normalization to basal fluorescence intensity measured before stimulation.
For dose-responses analysis, stimuli were presented in duplicates at 10 different concentrations ranging from 60 nM to 30 μM. Activities were normalized to the response obtained with 400 mM D-fructose, a concentration that elicits maximum receptor response. EC50s were determined using a non-linear regression algorithm (using a Senomyx, Inc. software), where the Hill slope, bottom asymptotes and top asymptotes were allow to vary. Identical results were obtained when analyzing the dose-response data using commercially available software for non-linear regression analysis such as GraphPad PRISM (San Diego, Calif.).

[1] = read-out: EC50 for activation of a hT1R2/hT1R3 sweet receptor

SMILES | EC50 (read-out: Sweet EC50) [nM] | EC50 [1] [nM]
S=C(NCc1ccc[nH]1)Nc1ccc(SC2CC2)cc1 [Example B18] | 410 | –
CCOc1ccc(NC(=S)NCc2ccco2)cc1 [Example 7, 1-(4-ethoxyphenyl)-3-(furan-2-ylmethyl)thiourea] | – | 1700
CC(C)COc1ccc(NC(=S)NCc2ccc[nH]2)cc1 [Example B33] | 5560 | –
CCSc1ccc(NC(=S)NCc2ccc[nH]2)cc1 [Example B16] | 210 | –
CCCCOc1ccc(S(=O)(=O)Nc2cccnc2)cc1 [Example B46] | 2190 | –
COc1ccc(S(=O)(=O)Nc2ccc3nn(C)cc3c2)cc1 [Example B47] | 2940 | –
S=C(NCc1ccc[nH]1)Nc1ccc2c(c1)CCC2 [Example B23] | 790 | –
CCN(CC)c1ccc(NC(=S)NCc2ccoc2)cc1 [Example B8] | 4090 | –
COc1cc(OC)c(CNC(=S)Nc2ccc(OC(C)C)cc2)c(OC)c1 [Example B1] | 260 | –
CC(=O)c1ccc(NC(=S)NCc2ccoc2)cc1 [Example B37] | 7450 | –
COc1ccc(CNc2ccc(F)cc2F)cc1O [Example 14, 5-((2,4-difluorophenylamino)methyl)-2-methoxyphenol] | – | 2100
FC(F)(F)Oc1ccc(NC(=S)NCc2ccc[nH]2)cc1 [Example B20] | 590 | –
CSc1ccc(NC(=S)NCc2ccc[nH]2)cc1 [Example B19] | 430 | –
S=C(NCc1cccs1)Nc1ccc(-n2cccn2)cc1 [Example B26] | 1530 | –
COc1ccc(CNC(=S)NC(=O)c2ccccc2Cl)cc1 [Example B9] | 4900 | –
CCCCc1ccc(NC(=S)NCc2ccc[nH]2)cc1 [Example B34] | 5960 | –
COc1ccc(NC(=S)NCc2ccc[nH]2)c(C)c1 [Example B32] | 5190 | –
COc1ccc(CNc2cc(C)ccc2C)cc1O [Example 17, 5-((2,5-dimethylphenylamino)methyl)-2-methoxyphenol] | – | 2580
CCOc1ccc(NC(=S)NCc2sccc2C)cc1 [Example B31] | 4160 | –
CC(C)Oc1ccc(NC(=S)NCc2ccc[nH]2)cc1 [Example 19, 1-((1H-pyrrol-2-yl)methyl)-3-(4-isopropoxyphenyl)thiourea] | – | 25
COC(=O)COc1ccc(S(=O)(=O)Nc2ccc3c(c2)OCCO3)cc1 [Example B48] | 7970 | –
CC(C)Oc1ccc(NC(=S)NCc2cccs2)cc1 [Example 5, 1-(4-Isopropoxyphenyl)-3-(thiophen-2-ylmethyl)thiourea] | – | 120
S=C(NCc1ccoc1)Nc1ccc2c(c1)OCO2 [Example B40] | 11600 | –
O=S(=O)(NCc1ccncc1)c1ccc(F)cc1 [Example B42] | 6500 | –
CC(C)Oc1ccc(NC(=S)NCc2cccs2)cn1 [Example B11] | 220 | –
CCOc1ccc(NC(=S)NCc2ccc(C)o2)cc1 [Example B28] | 1910 | –

SMILES | EC50 (read-out: Sweet EC50) [nM] | EC50 [1] [nM]
OCCSc1ccc(NC(=S)NCc2ccc[nH]2)cc1 [Example B39] | 8500 | –
CC(C)Oc1ccc(NC(=S)NCc2cccnc2)cc1 [Example B35] | 6710 | –
CC(C)Oc1ccc(NC(=S)NCc2ccncc2)cc1 [Example B41] | 14200 | –
C=CCOc1ccc(NC(=S)NCc2ccc[nH]2)cc1 [Example B14] | 160 | –
CCOc1ccc(NC(=S)NCc2ccc[nH]2)cc1 [Example B10] | 160 | –
COc1c(S(=O)(=O)NCc2ccncc2)ccc(Cl)c1Cl [Example B45] | 2180 | –
COc1ccc(CNc2ccc(F)cc2C)cc1O [Example 13, 5-((4-fluoro-2-methylphenylamino)methyl)-2-methoxyphenol] | – | 2290
Cc1cc(C)c(S(=O)(=O)NCc2ccncc2)c(C)c1 [Example B43] | 760 | –
CC(C)Oc1ccc(NC(=S)NCc2ccco2)cc1 [Example 6, 1-(4-Isopropoxyphenyl)-3-(furan-2-ylmethyl)thiourea] | – | 550
C#Cc1ccc(NC(=S)NCc2cccs2)cc1 [Example B36] | 7000 | –
FC(F)(F)c1ccc(NC(=S)NCc2ccc[nH]2)c(Cl)c1 [Example B22] | 670 | –
C=COc1ccc(NC(=S)NCc2ccc[nH]2)cc1 [Example B15] | 180 | –
CC(C)Oc1ccc(NC(=S)NCc2ccccc2)cc1 [Example 11] | – | 1000
COc1ccc(CNc2ccccc2F)cc1O [Example 16, 5-((2-fluorophenylamino)methyl)-2-methoxyphenol] | – | 2410
CCC(C)Oc1ccc(NC(=S)NCc2ccco2)cc1 (stereo not shown) [Example 9, 1-(4-sec-Butoxy-phenyl)-3-furan-2-ylmethyl-thiourea] | – | 5300
Cc1cc(CNC(=S)Nc2ccc(OC(C)C)cc2)no1 [Example B7] | 1890 | –
CC(C)Oc1ccc(NC(=S)NCc2ccc[nH]2)cn1 [Example B12] | 340 | –
CN(C)c1ccc(NC(=S)NCc2cccs2)cc1 [Example B25] | 1500 | –
CC(C)(C)c1ccc(NC(=S)NCc2ccc[nH]2)cc1 [Example B27] | 1710 | –
C=Cc1ccc(NC(=S)NCc2ccc[nH]2)cc1 [Example B24] | 870 | –
CCOc1ccc(S(=O)(=O)NCc2ccncc2)cc1 [Example B44] | 930 | –
CC(C)Oc1ccc(NC(=S)NCc2ccno2)cc1 [Example B30] | 3860 | –
COC(=O)c1ccc(NC(=S)NCc2cccs2)cc1 [Example B29] | 2940 | –
CCn1cccc1CNC(=S)Nc1ccc(OC(C)C)cc1 [Example B13] | 1290 | –
CCOc1ccc(NC(=S)NCc2ccoc2)cc1 [Example 8, 1-(4-ethoxyphenyl)-3-(furan-3-ylmethyl)thiourea] | – | 230
CC(C)c1ccc(NC(=S)NCc2ccoc2)cc1 [Example 10, 1-(furan-3-ylmethyl)-3-(4-isopropylphenyl)thiourea] | – | 750
